The values below come from patent US20230174548A1, “SYMBIOTIC PRODRUGS FOR THE TREATMENT OF CANCER AND OTHER DISEASES” (BOARD OF REGENTS OF THE UNIVERSITY OF NEBRASKA, priority 2020, published 2023).

The test system of data set [1] is FTE282E1, OVSAHO, HPNE, MiaPaCa2 and S2013 cell lines. In words: growth inhibition assays in a panel of five cell lines. Conditions: for potency rank among inhibitors treated as single agents: irrespective of the cell line.
For a further data set, the target named is T1, RELA (Homo sapiens, UniProt Q04206).
T1 construct: endogenous in cells; host or cells: A2780
T1 sequence (Q04206 whole entry): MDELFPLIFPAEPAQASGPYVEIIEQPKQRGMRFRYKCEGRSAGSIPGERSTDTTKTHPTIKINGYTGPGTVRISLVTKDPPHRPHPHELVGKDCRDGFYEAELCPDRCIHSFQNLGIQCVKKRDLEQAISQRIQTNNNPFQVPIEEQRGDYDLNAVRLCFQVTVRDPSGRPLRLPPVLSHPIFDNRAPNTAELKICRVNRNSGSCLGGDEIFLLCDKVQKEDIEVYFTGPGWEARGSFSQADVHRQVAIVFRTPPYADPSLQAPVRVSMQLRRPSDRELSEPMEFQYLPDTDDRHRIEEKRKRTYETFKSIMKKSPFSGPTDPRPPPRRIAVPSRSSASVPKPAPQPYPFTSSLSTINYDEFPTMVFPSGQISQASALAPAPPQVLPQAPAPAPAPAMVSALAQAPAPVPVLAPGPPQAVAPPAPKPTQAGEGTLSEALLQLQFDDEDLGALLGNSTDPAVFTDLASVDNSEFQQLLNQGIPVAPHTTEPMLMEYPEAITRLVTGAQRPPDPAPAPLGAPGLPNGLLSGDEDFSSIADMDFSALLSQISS
In words: target engagement in A2780 cells (click chemistry pull-down, Western blot). Conditions: 48 h. The class given is cell-based. As to the method:
(§1) Briefly, the cells were incubated with 10 μM of compound 4 for […]. In cells, compound 4 is converted to compound 3 with an active methylene group which reacts with surface-exposed cysteine residues on proteins. The lysate was treated with click reagents (TCEP, TBTA and CuSO4) and azido-biotin. Biotin-tagged-3-bound proteins were subjected to monoavidin column. Biotin-tagged proteins were captured, the column was washed to removed untagged proteins and the biotin-tagged-3-bound proteins were eluted with regeneration buffer (6M urea/PBS). The eluted lysates were subjected to Western blot analyses and probed for proteins (IKKβ, RELA, IκBα and IKKγ) in the IKK complex.
(§2) To determine target engagement in cells, cancer cells (A2780) were treated with the compound 4, which is an alkyne-tagged analog of prodrug compound 19-AP1 for 48 h (FIG. 2B). Cells were then harvested, washed and pelleted. Unbound compound 4 was removed by extensively washing the cell pellet. The cell pellets were lysed, and 2 mg/mL of lysates were subjected to click chemistry with TAMRA-Biotin-Azide trifunctional probe (10 mM stock, 20 μL, click chemistry tools), and other click reagents (TCEP, 100 mM stock, 20 μL; TBTA 13.5 mM stock, 20 μL and CuSO4 100 mM stock, 10 μL) to make total volume of 1 mL. The reaction was incubated for 3 h at RT. The lysates were incubated with monomeric avidin beads for additional 1 h. […]
In general terms: Immunoblotting shows a protein as a band on a membrane.

A further data set concerns the target T2, IKKβ (Homo sapiens, UniProt O14920).
T2 construct: endogenous in cells; host or cells: A2780
Described as above. Conditions: 48 h. The class given is cell-based. As to the method:
as §1, §2

The test system of data set [2] is 9 ovarian cancer and 2 immortalized fallopian tube epithelial cell lines. In words: growth inhibition, expanded panel, average over cell lines. The class given is cell-based. Conditions: average over 11 cell lines. The source says:
The ^AveCI for compound 5 in SKOV3 cells was 0.2 indicating strong synergism.

The test system of data set [3] is SNU119 ovarian cancer cell line. The data set is described as follows: growth inhibition, synergy studies. The class given is cell-based. Conditions: read-out: IC50 (Mean ± SD).
In data set [4] the test system is SKOV3 ovarian cancer cell line. The data set is described as follows: growth inhibition, synergy studies. Conditions: for IC50: Homo sapiens, SK-OV-3, SKOV3, read-out: IC50 (Mean ± SD). The class given is cell-based.
The test system of data set [5] is CaOV3 ovarian cancer cell line. In words: growth inhibition, synergy studies. It is filed as cell-based. Conditions: Homo sapiens, Caov-3, read-out: IC50 (Mean ± SD).
For data set [6], the system named is OVCAR4 ovarian cancer cell line. The data set is described as follows: growth inhibition, synergy studies. Conditions: Homo sapiens, OVCAR-4, read-out: IC50 (Mean ± SD). It is filed as cell-based.
The test system of data set [7] is FT282C11 immortalized fallopian tube epithelial cell line. The data set is described as follows: growth inhibition, synergy studies. The class given is cell-based. Conditions: read-out: IC50 (Mean ± SD).
Data set [8] relates to OVSAHO ovarian cancer cell line. The data set is described as follows: growth inhibition, synergy studies. It is filed as cell-based. Conditions: for IC50: Homo sapiens, OVSAHO, read-out: IC50 (Mean ± SD).
For data set [9], the system named is A2780 ovarian cancer cell line. In words: growth inhibition, synergy studies. It is filed as cell-based. Conditions: Homo sapiens, read-out: IC50 (Mean ± SD).
For data set [10], the system named is FT282E1 immortalized fallopian tube epithelial cell line. The data set is described as follows: growth inhibition, synergy studies. The class given is cell-based. Conditions: for IC50: Epithelial cell, FT282E1, read-out: IC50 (Mean ± SD).
Another data set deals with CDK6 (Homo sapiens, UniProt Q00534). In words: cell-free CDK inhibitor assay. It is filed as biochemical. Conditions: for fold less potent than palbociclib: CDK6; for IC50: CDK6, cell-free.
Chain of CDK6 (Q00534 whole entry): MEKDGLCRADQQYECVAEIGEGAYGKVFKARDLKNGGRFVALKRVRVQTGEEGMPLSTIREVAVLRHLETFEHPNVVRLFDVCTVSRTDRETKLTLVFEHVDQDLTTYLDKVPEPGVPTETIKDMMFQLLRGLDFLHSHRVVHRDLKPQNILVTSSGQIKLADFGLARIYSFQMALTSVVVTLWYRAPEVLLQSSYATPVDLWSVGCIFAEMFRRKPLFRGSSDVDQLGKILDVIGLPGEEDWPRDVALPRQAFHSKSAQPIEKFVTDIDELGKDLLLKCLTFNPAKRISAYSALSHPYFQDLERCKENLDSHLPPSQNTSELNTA
Chain of CDK6 (P30281 whole entry partner): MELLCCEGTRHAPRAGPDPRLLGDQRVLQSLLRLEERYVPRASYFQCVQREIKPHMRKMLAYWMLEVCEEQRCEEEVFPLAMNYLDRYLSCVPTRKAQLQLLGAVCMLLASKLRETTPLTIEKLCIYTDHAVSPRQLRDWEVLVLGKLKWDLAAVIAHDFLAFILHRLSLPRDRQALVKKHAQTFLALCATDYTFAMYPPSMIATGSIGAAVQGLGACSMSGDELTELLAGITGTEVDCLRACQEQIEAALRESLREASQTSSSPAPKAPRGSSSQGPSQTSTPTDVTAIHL
The subject of data set [11] is OVCAR8 ovarian cancer cell line. In words: growth inhibition, synergy studies. It is filed as cell-based. Conditions: Homo sapiens, OVCAR-8, read-out: IC50 (Mean ± SD).
The test system of data set [12] is OVCAR5 ovarian cancer cell line. In words: growth inhibition, synergy studies. The class given is cell-based. Conditions: Homo sapiens, OVCAR-5, read-out: IC50 (Mean ± SD).
Data set [13] has as its system Kuramochi ovarian cancer cell line. The data set is described as follows: growth inhibition, synergy studies. The class given is cell-based. Conditions: read-out: IC50 (Mean ± SD).
For the next data set, the target named is CDK4 (Homo sapiens, UniProt P11802). The data set is described as follows: cell-free CDK inhibitor assay. It is filed as biochemical. Conditions: for fold less potent than palbociclib: CDK4; for IC50: CDK4, cell-free.
Chain of CDK4 (P11802 whole entry): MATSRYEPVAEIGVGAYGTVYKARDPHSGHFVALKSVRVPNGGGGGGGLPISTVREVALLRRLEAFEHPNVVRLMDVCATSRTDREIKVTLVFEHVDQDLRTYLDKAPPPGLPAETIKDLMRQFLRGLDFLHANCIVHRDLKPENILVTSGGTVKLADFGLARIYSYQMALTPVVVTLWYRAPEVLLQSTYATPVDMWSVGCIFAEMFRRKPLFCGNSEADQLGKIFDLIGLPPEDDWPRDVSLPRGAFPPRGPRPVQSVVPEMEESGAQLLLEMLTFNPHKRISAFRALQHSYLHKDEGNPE
Chain of CDK4 (P24385 whole entry partner): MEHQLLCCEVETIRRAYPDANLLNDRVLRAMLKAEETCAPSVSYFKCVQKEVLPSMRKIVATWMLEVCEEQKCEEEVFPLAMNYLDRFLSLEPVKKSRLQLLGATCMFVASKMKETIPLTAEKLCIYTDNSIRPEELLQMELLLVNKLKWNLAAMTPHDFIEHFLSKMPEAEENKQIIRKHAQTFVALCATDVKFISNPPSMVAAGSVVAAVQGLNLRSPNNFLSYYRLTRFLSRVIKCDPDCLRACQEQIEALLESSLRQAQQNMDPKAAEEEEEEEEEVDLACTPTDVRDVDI
Data set [14] relates to A2780 ovarian cancer line. The data set is described as follows: 72 h growth inhibition assay. Conditions: Homo sapiens, A2780, 72 h. It is filed as cell-based. As to the method:
(§3) The cancer cell growth-inhibitory potential of amine-prodrugs (compounds 19-AP1 and 19-AP2) was evaluated. Compounds 19, 19-AP1 and 19-AP2 were screened in ovarian cancer lines (A2780, and OVSAHO) and immortalized fallopian tube epithelial cells (FT282E1) in a 72 h growth inhibition assay.

In data set [15] the test system is FT282E1 immortalized fallopian tube epithelial cells. The data set is described as follows: 72 h growth inhibition assay. The class given is cell-based. Conditions: Epithelial cell; FT282E1, 72 h. As to the method:
as §3

In data set [16] the test system is OVSAHO ovarian cancer line. The data set is described as follows: 72 h growth inhibition assay. The class given is cell-based. Conditions: for IC50: Homo sapiens, 72 h. As to the method: as §3
Data set [17] can be described thus: cysteine binding assay using Ellman's reagent. It is filed as physicochemical. Conditions: 19 vs prodrug under similar conditions. From the text: Without wishing to be bound by theory, it is believed that the α-methylene-γ-butyrolactone moiety on compound 19 is reactive toward biological nucleophiles such as glutathione and cysteine. To determine if secondary amine prodrug of compound 19 (Compound 19-AP1) results in improved stability, the reactivity of analog compound 19 and the prodrug compound 19-AP1 was compared in a cysteine binding assay using Ellman's reagent (FIG. 1B).

Data set [18] in a line: 19F NMR kinetics of release of compound 19 from prodrug. It is filed as physicochemical. Conditions: release of 4-trifluoromethylpiperidine. The source says: Next, to assess the kinetics of the release of the active compound 19 from the prodrug compound 19-AP1, the release of 4trifluoropiperidine from the prodrug compound 19-AP1 was monitored using ^19F-NMR spectroscopy following a reported method. (Woods, Mo, Bieberich, Alavanja, & Colby, 2011). […] This observation is consistent with previously reported studies with a prodrug of parthenolide.

For data set [19] the following is noted: Phase II and III clinical trials; cited from earlier work.

T2 sequence (O14920 whole entry): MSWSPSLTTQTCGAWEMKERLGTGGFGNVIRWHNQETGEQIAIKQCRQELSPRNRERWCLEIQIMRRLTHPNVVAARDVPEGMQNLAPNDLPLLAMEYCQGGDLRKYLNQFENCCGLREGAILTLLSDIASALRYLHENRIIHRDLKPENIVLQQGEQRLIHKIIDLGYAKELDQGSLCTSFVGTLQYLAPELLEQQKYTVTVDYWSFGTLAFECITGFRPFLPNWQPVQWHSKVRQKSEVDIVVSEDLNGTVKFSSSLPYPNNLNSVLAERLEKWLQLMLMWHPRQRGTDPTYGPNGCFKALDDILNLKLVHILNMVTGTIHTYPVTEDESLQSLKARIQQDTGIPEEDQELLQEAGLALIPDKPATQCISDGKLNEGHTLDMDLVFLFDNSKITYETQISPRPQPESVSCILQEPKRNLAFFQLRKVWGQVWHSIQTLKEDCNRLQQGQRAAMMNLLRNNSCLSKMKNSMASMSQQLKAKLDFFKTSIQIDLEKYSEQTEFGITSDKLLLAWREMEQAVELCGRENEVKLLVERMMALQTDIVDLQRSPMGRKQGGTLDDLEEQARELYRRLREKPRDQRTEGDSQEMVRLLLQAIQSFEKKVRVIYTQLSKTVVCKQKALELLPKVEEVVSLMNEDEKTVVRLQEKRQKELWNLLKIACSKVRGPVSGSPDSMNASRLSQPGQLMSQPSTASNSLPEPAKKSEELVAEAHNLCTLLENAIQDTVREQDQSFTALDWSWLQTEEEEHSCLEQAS

Consider `O=C(NC1CCNCC1)c1[nH]ncc1NC(=O)c1c(Cl)cccc1Cl` [AT7519, reference compound], for which the “potency rank among inhibitors treated as single agents” value in data set [1] is listed as “AT7519>compound 19>parthenolide>palbociclib”.

As for `C#CCN1C(=O)C2(CC(CN3CCC(C(F)(F)F)CC3)C(=O)O2)c2ccccc21` (stereo not drawn) [Compound 4, 1′-(prop-2-yn-1-yl)-4-((4-(trifluoromethyl)piperidin-1-yl)methyl)-3,4-dihydro-5H-spiro[furan2,3′-indoline]-2′,5-dione], the “covalent binding of RELA protein” value on RELA is given as “observed”. For the same compound, at IKKβ, the “covalent binding of IKKβ protein” value is on record as “observed”.

As for `CC(=O)c1c(C)c2cnc(Nc3ccc(N4CCN(CC5CC6(OC5=O)C(=O)Nc5ccccc56)CC4)cn3)nc2n(C2CCCC2)c1=O` (stereo not drawn) [Compound 5, 4-((4-(6-((6-Acetyl-8-cyclopentyl-5-methyl-7-oxo-7,8-dihydropyrido[2,3-d]pyrimidin-2yl)amino)pyridin-3-yl)piperazin-1-yl)methyl)-3,4-dihydro-5H-spiro[furan-2,3′-indoline]-2′,5dione], the “fold less potent than the corresponding 1:1 mixture, on an average” value in data set [2] is on record as “equipotent”. In addition, the “fold more potent than the parthenolide-palbociclib compound 6” value in [2] is given as ~3 fold. Moreover, the IC50 (usually the point on the concentration scale where inhibition reaches its midpoint) in [3] came to 8.8 ± 1.6 µM; in data set [4], 15.4 ± 1.5 µM; in data set [5], 5.5 ± 0.5 µM; in data set [6], 17.9 ± 1.4 µM; in data set [7] it was 21.8 ± 1.5 µM; in data set [8], 11.4 ± 0.9 µM. In addition, the IC50 in data set [9] was 6.6 ± 1.3 µM; in data set [10] it was 14.6 ± 1.2 µM; on CDK6 it was 0.009 ± 0.001 µM; in [11], 9.1 ± 0.9 µM; in data set [12], 9.3 ± 0.9 µM; in data set [13] it was > 40 µM. This compound yielded an IC50 against CDK4 of 0.046 ± 0.014 µM. The “average combination index (AveCI)” value in data set [4] (SKOV3 cells) was 0.2; in data set [8] (OVSAHO cells, effective dose (ED) 50, 75 and 90), 0.9; in data set [10] (FT282E1 cells), > 1.0. For the same compound, the figures for the “fold less potent than palbociclib” value on CDK6 and on CDK4 were ~20 fold and ~100 fold, respectively.

Regarding `CC(=O)c1c(C)c2cnc(Nc3ccc(N4CCN(CC5C(=O)O[C@@H]6[C@H]7O[C@]7(C)CCC/C=C(\C)C[C@@H]56)CC4)cn3)nc2n(C2CCCC2)c1=O` (stereo partly drawn) [Compound 6, 6-Acetyl-8-cyclopentyl-2-((5-(4-(((3R,3aS,9aR,10aS,10bS,E)-6,9a-dimethyl-2-oxo2,3,3a,4,5,8,9,9a,10a,10b-decahydrooxireno[2′,3′:9,10]cyclodeca[1,2-b]furan-3yl)methyl)piperazin-1-yl)pyridin-2-yl)amino)-5-methylpyrido[2,3-d]pyrimidin-7(8H)-one], the “fold less potent than the corresponding 1:1 mixture, on an average” value in data set [2] was ~7 fold. In addition, the IC50 in data set [3] is 34.9 ± 6.3 µM; in [4], > 40 µM; in [5], 25 ± 3.2 µM; in data set [6] it was > 40 µM; in data set [7], 25.6 ± 4.8 µM; in data set [8], 31.1 ± 2.3 µM. Further, the IC50 was 31 ± 7 µM in data set [9]; > 40 µM in [10]; 0.018 ± 0.001 µM against CDK6; 38.4 ± 4.5 µM in data set [11]; 32.6 ± 4.4 µM in data set [12]; > 40 µM in data set [13]. For the same compound, it took 0.085 ± 0.018 µM to reach half-maximal inhibition against CDK4 (IC50). The “fold less potent than palbociclib” value at CDK6 was ~50 fold; on CDK4, ~200 fold.

For `O=C(NC1CCN(CC2CC3(OC2=O)C(=O)Nc2ccccc23)CC1)c1n[nH]cc1NC(=O)c1c(Cl)cccc1Cl` (stereo not drawn) [Compound 7, 4-(2,6-dichlorobenzamido)-N-(1-((2′,5-dioxo-4,5-dihydro-3H-spiro[furan-2,3′-indolin]-4yl)methyl)piperidin-4-yl)-1H-pyrazole-3-carboxamide], the “potency relative to the palbociclib based compounds (compounds 5 and 6)” value in [1] is “more potent”.

For `C/C1=C\CCC[C@@]2(C)O[C@@H]2[C@H]2OC(=O)C(CN3CCC(NC(=O)c4n[nH]cc4NC(=O)c4c(Cl)cccc4Cl)CC3)[C@@H]2C1` (stereo partly drawn) [Compound 8, 4-(2,6-dichlorobenzamido)-N-(1-(((3R,3aS,9aR,10aS,10bS,E)-6,9a-dimethyl-2-oxo2,3,3a,4,5,8,9,9a,10a,10b-decahydrooxireno[2′,3′:9,10]cyclodeca[1,2-b]furan-3yl)methyl)piperidin-4-yl)-1H-pyrazole-3-carboxamide], in data set [1], the “potency relative to the palbociclib based compounds (compounds 5 and 6)” value is “more potent”.

In the case of `C=C1CC2(OC1=O)C(=O)Nc1ccccc12` (stereo not drawn) [Compound 19, 4-methylene-3,4-dihydro-5H-spiro(furan-2,3′-indoline)-2′,5-dione, reference compound], in data set [1], the “potency rank among inhibitors treated as single agents” value is on record as “AT7519>compound 19>parthenolide>palbociclib”. Also, the figures for the IC50 in data set [14], in data set [15] and in [16] were 2.15 ± 0.15 µM, 5.28 ± 0.17 µM and 20.4 ± 4.71 µM, respectively. In data set [17], the “reactivity towards free cysteine” value is reported as “reacted rapidly”.

Turning to `O=C1OC2(CC1CN1CCC(C(F)(F)F)CC1)C(=O)Nc1ccccc12` (stereo not drawn) [Compound 19-AP1, 4-((4-(trifluoromethyl)piperidin-1-yl)methyl)-3,4-dihydro-5H-spiro[furan-2,3′-indoline]-2′,5dione], the IC50 in data set [14] was found to be 5.71 ± 0.24 µM; in data set [15] it was 10.2 ± 0.56 µM; in data set [16], 10.8 ± 1.28 µM. Also, the “potency relative to parent compound 19” value in data set [16] is “more potent”. Also, the “reactivity towards free cysteine” value in [17] is on record as “more stable”. Besides, the “period over which the prodrug is hydrolyzed slowly to release the active compound 19” value in [18] is reported as 72 h.

As to `CN(C)CC1CC2(OC1=O)C(=O)Nc1ccccc12` (stereo not drawn) [Compound 19-AP2, 4-((dimethylamino)methyl)-3,4-dihydro-5H-spiro[furan-2,3′-indoline]-2′,5-dione], the values for the IC50 in data set [14], in data set [15] and in data set [16] were 5.38 ± 0.33 µM, 12 ± 1.26 µM and 9.81 ± 1.07 µM, respectively. Besides, the “potency relative to parent compound 19” value in data set [16] is “more potent”.

For the compound `COc1cccc2c1C(=O)c1c(O)c3c(c(O)c1C2=O)C[C@@](O)(/C(CO)=N/NC(=O)CCCCCN1C(=O)C=CC1=O)C[C@@H]3O[C@H]1C[C@H](N)[C@H](O)[C@H](C)O1` [INNO-206], the “cardiotoxicity profile compared with doxorubicin” value in data set [19] is “far superior”.
